pIC50: −log10 of the molar value.
Columns and labels:
[1] = molecular target: NAMPT (human, recombinant, C-terminally His-tagged) (Homo sapiens, UniProt P43490); test: Time-Resolved Fluorescence Resonance Energy Transfer (TR-FRET) Binding Assay of NAMPT; details: without substrates; 6.8 nM NAMPT, 200 nM probe, 3 hours equilibration
In short: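 Probe displacement by compound was measured with 6.8 nM NAMPT, 200 nM Oregon Green 488-conjugated nicotinamide-competitive inhibitor probe and 1 nM Tb-anti-His antibody in 50 mM HEPES pH 7.5, 100 mM NaCl, 10 mM MgCl2, 1 mM DTT, 1% glycerol, 2% DMSO (final). After 3 h at room temperature, TR-FRET was read; IC50 from four-parameter logistic fit.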

PC3 cells = test: NAMPT Cell Proliferation Assay; format: cell-based; details: Homo sapiens, PC-3, 120 h, 5 days incubation, cell viability by Cell Titer Glo
In short: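 Cell Titer Glo viability after 5-day exposure (37° C, 5% CO2); PC3, 500 cells/well, RPMI + 10% heat-inactivated FBS, overnight attachment before dosing. Dose range 10 μM to 1×10^−5 μM, 10-fold steps. IC50 = sigmoidal fit of % inhibition.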

NAMPT = NAMPT (Homo sapiens, UniProt P43490); test: TR-FRET Binding Assay of NAMPT with PRPP; details: with 200 μM PRPP and 2.5 mM ATP; 2 nM NAMPT, 2 nM probe, 16 hours equilibration
In short: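 Run in the presence of substrates (200 μM PRPP, 2.5 mM ATP) with final 2 nM NAMPT, 2 nM probe, 1 nM Tb-anti-His antibody and 2% DMSO. Mixtures equilibrated 16 h before TR-FRET measurement so test compounds could be enzymatically modified.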

Sequence of NAMPT (P43490 whole entry): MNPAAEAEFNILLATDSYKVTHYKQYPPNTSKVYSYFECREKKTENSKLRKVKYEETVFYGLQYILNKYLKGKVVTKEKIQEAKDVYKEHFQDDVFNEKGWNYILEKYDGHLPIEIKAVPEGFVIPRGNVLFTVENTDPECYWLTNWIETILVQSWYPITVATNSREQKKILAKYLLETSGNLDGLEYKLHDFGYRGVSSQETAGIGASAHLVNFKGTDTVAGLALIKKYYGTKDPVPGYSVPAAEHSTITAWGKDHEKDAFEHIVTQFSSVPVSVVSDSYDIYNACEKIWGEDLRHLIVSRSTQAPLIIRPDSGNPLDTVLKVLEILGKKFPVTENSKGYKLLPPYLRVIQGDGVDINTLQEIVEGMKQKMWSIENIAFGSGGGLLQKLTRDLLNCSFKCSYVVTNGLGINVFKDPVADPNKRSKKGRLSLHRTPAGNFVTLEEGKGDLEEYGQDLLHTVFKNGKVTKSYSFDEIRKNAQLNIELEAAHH
Sequence of NAMPT (human, recombinant, C-terminally His-tagged) (P43490 whole entry): as above

Row | pIC50 [1] | pIC50 (PC3 cells) | pIC50 (NAMPT) | SMILES
1 | 6.34 | 7.50 | 9.77 | O=C(NCc1ccn2ccnc2c1)Nc1ccc(C2CN(C(=O)CC3CCOCC3)C2)cc1 [Example 461, 1-(imidazo[1,2-a]pyridin-7-ylmethyl)-3-{4-[1-(tetrahydro-2H-pyran-4-ylacetyl)azetidin-3-yl]phenyl}urea]
2 | 7.23 | 8.13 | 9.58 | O=C(CC1CCCC1)Nc1ccc(C(=O)NCc2ccc3nccn3c2)c(F)c1 [Example 462, 4-[(cyclopentylacetyl)amino]-2-fluoro-N-(imidazo[1,2-a]pyridin-6-ylmethyl)benzamide]
3 | 6.50 | 6.63 | 9.28 | O=C(CC1CCCC1)Nc1ccc(C(=O)NCc2ccn3ccnc3c2)c(F)c1 [Example 463, 4-[(cyclopentylacetyl)amino]-2-fluoro-N-(imidazo[1,2-a]pyridin-7-ylmethyl)benzamide]
4 | 7.20 | 8.17 | 9.77 | O=C(NCc1ccn2ccnc2c1)c1ccc(-c2ccc(N3CCOCC3)nc2)s1 [Example 464, N-(imidazo[1,2-a]pyridin-7-ylmethyl)-5-[6-(morpholin-4-yl)pyridin-3-yl]thiophene-2-carboxamide]
5 | 7.86 | 9.50 | 9.77 | CC1(Cn2cc(-c3ccc(C(=O)NCc4ccn5ccnc5c4)s3)cn2)CCCCO1 (stereo not drawn) [Example 465, N-(imidazo[1,2-a]pyridin-7-ylmethyl)-5-{1-[(2-methyltetrahydro-2H-pyran-2-yl)methyl]-1H-pyrazol-4-yl}thiophene-2-carboxamide]
6 | 7.13 | 8.37 | 9.54 | CC(C)(C)OC(=O)N1CCC(Cn2cc(-c3ccc(C(=O)NCc4ccn5ccnc5c4)s3)cn2)CC1 [Example 466, tert-butyl 4-[(4-{5-[(imidazo[1,2-a]pyridin-7-ylmethyl)carbamoyl]thiophen-2-yl}-1H-pyrazol-1-yl)methyl]piperidine-1-carboxylate]
7 | 7.04 | 8.40 | 9.56 | CC(C)CC(=O)N1CCC(c2ccc(C(=O)NCc3ccn4ccnc4c3)s2)C1 (stereo not drawn) [Example 467, N-(imidazo[1,2-a]pyridin-7-ylmethyl)-5-[1-(3-methylbutanoyl)pyrrolidin-3-yl]thiophene-2-carboxamide]
8 | < 5.00 | 5.53 | 9.01 | CC(C)C(=O)NC1(c2ccc(C(=O)NCc3ccn4ccnc4c3)s2)CCC1 [Example 468, N-(imidazo[1,2-a]pyridin-7-ylmethyl)-5-{1-[(2-methylpropanoyl)amino]cyclobutyl}thiophene-2-carboxamide]
9 | < 5.00 | 5.47 | 9.36 | CC(C)CC(=O)NC1(c2ccc(C(=O)NCc3ccn4ccnc4c3)s2)CCC1 [Example 469, N-(imidazo[1,2-a]pyridin-7-ylmethyl)-5-{1-[(3-methylbutanoyl)amino]cyclobutyl}thiophene-2-carboxamide]
10 | 5.25 | 6.03 | 9.34 | CC[C@H](C)C(=O)NC1(c2ccc(C(=O)NCc3ccn4ccnc4c3)s2)CCC1 [Example 470, N-(imidazo[1,2-a]pyridin-7-ylmethyl)-5-(1-{[(2S)-2-methylbutanoyl]amino}cyclobutyl)thiophene-2-carboxamide]
11 | 5.46 | 5.19 | 9.33 | O=C(NC1(c2ccc(C(=O)NCc3ccn4ccnc4c3)s2)CCC1)c1ccccc1 [Example 471, 5-[1-(benzoylamino)cyclobutyl]-N-(imidazo[1,2-a]pyridin-7-ylmethyl)thiophene-2-carboxamide]
12 | 5.54 | 6.02 | 9.48 | O=C(CC(F)(F)F)NC1(c2ccc(C(=O)NCc3ccn4ccnc4c3)s2)CCC1 [Example 472, N-(imidazo[1,2-a]pyridin-7-ylmethyl)-5-{1-[(3,3,3-trifluoropropanoyl)amino]cyclobutyl}thiophene-2-carboxamide]
13 | < 5.00 | 5.11 | 9.00 | O=C(NCc1ccn2ccnc2c1)c1ccc(C2(NC(=O)C3CCOCC3)CCC2)s1 [Example 473, N-(1-{5-[(imidazo[1,2-a]pyridin-7-ylmethyl)carbamoyl]thiophen-2-yl}cyclobutyl)tetrahydro-2H-pyran-4-carboxamide]
14 | 5.70 | 6.06 | 9.44 | CC(C)(C)OC(=O)N1CC(Oc2ccc(C(=O)NCc3ccn4ccnc4c3)cc2)C1 [Example 474, tert-butyl 3-{4-[(imidazo[1,2-a]pyridin-7-ylmethyl)carbamoyl]phenoxyl}azetidine-1-carboxylate]
15 | 8.01 | 8.16 | 9.77 | O=C(NCc1ccn2ccnc2c1)c1ccc(-c2cnn(CC3CCC3)c2)s1 [Example 475, 5-[1-(cyclobutylmethyl)-1H-pyrazol-4-yl]-N-(imidazo[1,2-a]pyridin-7-ylmethyl)thiophene-2-carboxamide]
16 | 7.15 | 8.03 | 9.71 | O=C(NCc1ccn2ccnc2c1)c1ccc(-c2cnn(CC3CCCO3)c2)o1 (stereo not drawn) [Example 476, N-(imidazo[1,2-a]pyridin-7-ylmethyl)-5-[1-(tetrahydrofuran-2-ylmethyl)-1H-pyrazol-4-yl]furan-2-carboxamide]
17 | 7.14 | 8.49 | 9.63 | O=C(NCc1ccn2ccnc2c1)c1ccc(-c2cnn(CC3CCCCO3)c2)o1 (stereo not drawn) [Example 477, N-(imidazo[1,2-a]pyridin-7-ylmethyl)-5-[1-(tetrahydro-2H-pyran-2-ylmethyl)-1H-pyrazol-4-yl]furan-2-carboxamide]
18 | 6.72 | 7.51 | 9.62 | O=C(NCc1ccn2ccnc2c1)c1ccc(-c2cnn(CC3CCOC3)c2)o1 (stereo not drawn) [Example 478, N-(imidazo[1,2-a]pyridin-7-ylmethyl)-5-[1-(tetrahydrofuran-3-ylmethyl)-1H-pyrazol-4-yl]furan-2-carboxamide]
19 | 7.20 | 8.09 | 9.61 | O=C(NCc1ccn2ccnc2c1)c1ccc(-c2cnn(CC3CCCOC3)c2)o1 (stereo not drawn) [Example 479, N-(imidazo[1,2-a]pyridin-7-ylmethyl)-5-[1-(tetrahydro-2H-pyran-3-ylmethyl)-1H-pyrazol-4-yl]furan-2-carboxamide]
20 | 6.74 | 8.13 | 9.47 | O=C(NCc1ccn2ccnc2c1)c1ccc(-c2cnn(CC3CCOCC3)c2)o1 [Example 480, N-(imidazo[1,2-a]pyridin-7-ylmethyl)-5-[1-(tetrahydro-2H-pyran-4-ylmethyl)-1H-pyrazol-4-yl]furan-2-carboxamide]
21 | 7.24 | 8.24 | 9.75 | O=C(NCc1ccn2ccnc2c1)c1ccc(-c2cnn(CC3CCC3)c2)o1 [Example 481, 5-[1-(cyclobutylmethyl)-1H-pyrazol-4-yl]-N-(imidazo[1,2-a]pyridin-7-ylmethyl)furan-2-carboxamide]
22 | 7.12 | 8.65 | 9.59 | CC1(Cn2cc(-c3ccc(C(=O)NCc4ccn5ccnc5c4)o3)cn2)COC1 [Example 482, N-(imidazo[1,2-a]pyridin-7-ylmethyl)-5-{1-[(3-methyloxetan-3-yl)methyl]-1H-pyrazol-4-yl}furan-2-carboxamide]
23 | 6.89 | 7.91 | 9.24 | CC(C)(O)Cn1cc(-c2ccc(C(=O)NCc3ccn4ccnc4c3)o2)cn1 [Example 483, 5-[1-(2-hydroxy-2-methylpropyl)-1H-pyrazol-4-yl]-N-(imidazo[1,2-a]pyridin-7-ylmethyl)furan-2-carboxamide]
24 | 7.10 | 8.02 | 9.72 | O=C(NCc1ccn2ccnc2c1)c1ccc(C2CCN(C(=O)c3ccco3)CC2)cc1 [Example 484, 4-[1-(furan-2-ylcarbonyl)piperidin-4-yl]-N-(imidazo[1,2-a]pyridin-7-ylmethyl)benzamide]
25 | 7.02 | 7.46 | 9.69 | O=C(NCc1ccn2ccnc2c1)c1ccc(-c2cnn(CC3CCNCC3)c2)s1 [Example 485, N-(imidazo[1,2-a]pyridin-7-ylmethyl)-5-[1-(piperidin-4-ylmethyl)-1H-pyrazol-4-yl]thiophene-2-carboxamide]
26 | 7.04 | 7.63 | 9.63 | CC(C)Cn1cc(-c2ccc(NC(=O)NCc3ccn4ccnc4c3)cc2)cn1 [Example 486, 1-(imidazo[1,2-a]pyridin-7-ylmethyl)-3-{4-[1-(2-methylpropyl)-1H-pyrazol-4-yl]phenyl}urea]
27 | 6.84 | 7.08 | 9.48 | CCCn1cc(-c2ccc(NC(=O)NCc3ccn4ccnc4c3)cc2)cn1 [Example 487, 1-(imidazo[1,2-a]pyridin-7-ylmethyl)-3-[4-(1-propyl-1H-pyrazol-4-yl)phenyl]urea]
28 | 6.86 | 7.01 | 9.26 | O=C(NCc1ccn2ccnc2c1)c1ccc(C2CCN(C(=O)c3cccs3)C2)cc1 (stereo not drawn) [Example 488, N-(imidazo[1,2-a]pyridin-7-ylmethyl)-4-[1-(thiophen-2-ylcarbonyl)pyrrolidin-3-yl]benzamide]

Reference: US9187472B2 (AbbVie Inc., priority 2012, dated 2015)
